Read-outs that look alike come from different tables or passages of the source.
Tests used:
[1] = target: α5-GABAA receptor (α5, β3, γ2 subunits) (Homo sapiens (Human), UniProt P18507+P31644); assay: Whole cell patch clamp, inverse agonist efficacy in HEK293 cells expressing α5-GABAA receptor; type: cell-based; details: HEK293, drug 100 nM, GABA 0.05 μM, −60 mV; read-out: Compound inverse agonist efficacy %
Source text: The inventors used electrophysiological methods to determine the inverse agonist efficacy of the drugs to be tested on the α5-GABAA receptor. The detailed methods are as follows:
Different subunits of the GABAA receptor were co-expressed in the HEK293 cell line to construct a fully functional GABAA receptor. The α, β, and γ subunits are essential to form a complete functional GABAA receptor. In this example, the present disclosure had established the following cell model: α5 subunit (see GenBank Accession No.: NM_000810.3 for protein sequences), β3 subunit (see GenBank Accession No.: NM_000814.5 for protein sequences), and γ2 subunit (see GenBank Accession No.: NM_000816.3 for protein sequences) were co-expressed in the HEK293 cell line, followed by screening the monoclonal stably transfected cell line. This cell line expressed a fully functional α5-GABAA receptor.
The monoclonal stably transfected HEK293 cell line expressing α5-GABAA receptor were cultured in 10 cm culture dishes and passaged when the cells grew to 80% to 90% confluent. During passaging, the culture medium was aspirated first, then 3 mL of DPBS phosphate buffer salt (Gibco™) was added to the culture dishes, and the culture dishes were shaken slightly, and DPBS was aspirated. 1 mL of trypsin (TrypLE Express, Gibco™) was added thereto, and the cells were digested at 37° C. for 1-2 minutes. Then 3 mL of complete medium (DMEM+10% FBS (Gibco™)) was added and the cells at the bottom of the culture dishes were dispersed. The cell suspension was transferred to a 15 mL centrifugal tube (Corning) and then centrifuged at 200 g for 3 minutes. The supernatant was discarded, 4 mL of complete medium was added, and the cells were gently blown and resuspended for use. If cell passaging was performed, the cell suspension was diluted at a ratio of 1:5 or 1:10. If cells for electrophysiological detection were prepared, the cell suspension was diluted in a ratio of 1:12, then added into a 24-well dish (Corning™) in which glass slides were placed and pretreated with Poly-D-Lysine, and the experiment was carried out after the cells adhered to the wall. The cells used for electrophysiology was cultured no more than 48 hours.
Drug concentration setting: The final drug concentration used in drug screening was 100 nM, and the GABA concentration was 0.05 μM. The whole cell patch clamp technique was used in electrophysiological assays, which could refer to the literature (I. Lecker, Y. Yin, D. S. Wang and B. A. Orser, British Journal of Anaesthesia, 2013, 110 (Si), i73-i81). The compositions of the extracellular solution for electrophysiology assay were as follows: 150 mM NaCl, 5 mM KCl, 2.5 mM CaCl2, 1 mM MgCl2, 10 mM HEPES, and 10 mM glucose (pH 7.4); the formulation of the electrode internal fluid for electrophysiology use was as follows: 140 mM CsCl, 11 mM EGTA, 10 mM HEPES, 2 mM CaCl2, 1 mM MgCl2, 4 mM MgATP, and 2 mM TEA (pH 7.3). The signal acquisition used an EPC-10 amplifier and the PatchMaster software (HEKA) or Axon700B amplifier and Clampex software (AXON). The recording electrode was pulled from borosilicate glass, and the electrode resistance was 4 to 6 MQ. The ALA-VC-8PG™ system was used for drug application. Single cell that grew independently was selected for recording. During recording, the cell membrane potential was clamped at −60 mV. During experiment, an extracellular solution was applied outside the cells for about 20 seconds. When the baseline reached to a stable state, the extracellular solution was switched to the GABA solution to induce an inward current. After about 20 to 40 seconds until the current was stable, the solution was switched to a corresponding drug solution to detect the effect of the drug. At last, the solution was switched to the extracellular solution, and the experiment was terminated when the baseline returned to the level before drug application. […]

[2] = target: human α5β3γ2 receptors (α5-GABAA receptor) (Homo sapiens (Human), UniProt P18507+P31644); assay: 3H-flunitrazepam competition binding, human α5β3γ2 GABAA receptor; details: HEK293 cell membranes, 1 nM 3H-flunitrazepam
Summary of the method: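 HEK293 membranes stably expressing each human receptor subtype ([…]) competed against 1 nM 3H-flunitrazepam in Tris buffer, 1 h at room temperature; flumazenil defined the low-signal control. Eight-point 4-fold test-compound dilutions; GF/C filtration and scintillation counting gave IC50 by curve fitting, converted to Ki.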

SMILES | inhibition at 0.1 µM [1] | Ki ([2]; read-out: α5-GABAAR Ki) | Ki ([2]; α5-GABAAR Ki)
Cc1nnn(-c2ccc(C(F)F)cc2)c1COc1ccc(N2CC(=O)N[C@H](C(=O)O)C2)nn1 [Example 36, (S)-4-(6-((1-(4-(Difluoromethyl)phenyl)-4-methyl-1H-1,2,3-triazol-5-yl)methoxy)pyridazin-3-yl)-6-oxopiperazine-2-carboxylic acid] | 49% | 13.6 nM | –
Cc1nnn(-c2ccc(C(F)F)cc2)c1COc1cnc(N2CCN3CCNC(=O)[C@@H]3C2)cn1 [Example 178, (S)-8-(5-((1-(4-(Difluoromethyl)phenyl)-4-methyl-1H-1,2,3-triazol-5-yl)methoxy)pyrazin-2-yl)hexahydro-2H-pyrazino[1,2-a]pyrazin-1(6H)-one] | 49.7% | 17.2 nM | –
Cc1nnn(-c2ccc(C(F)F)cc2)c1COc1ccc(N2CCN3CCN(C)C(=O)[C@@H]3C2)nn1 [Example 107, (S)-8-(6-((1-(4-(Difluoromethyl)phenyl)-4-methyl-1H-1,2,3-triazol-5-yl)methoxy)pyridazin-3-yl)-2-methyloctahydro-1H-pyrazino[1,2-a]pyrazin-1-one] | 49.2% | 15.6 nM | –
Cc1nnn(-c2ccc(C(F)F)cc2)c1COc1ccc(N2CCN(CC3CC3)C(=O)C2)nn1 [Example 97, 1-(Cyclopropylmethyl)-4-(6-((1-(4-(difluoromethyl)phenyl)-4-methyl-1H-1,2,3-triazol-5-yl)methoxy)pyridazin-3-yl)piperazin-2-one] | 49.2% | – | 1.11 nM
Cc1nnn(-c2ccc(Cl)cc2)c1COc1ccc(N2CCN3CCNC(=O)[C@@H]3C2)nn1 [Example 163, (S)-8-(6-((1-(4-Chlorophenyl)-4-methyl-1H-1,2,3-triazol-5-yl)methoxy)pyridazin-3-yl)hexahydro-2H-pyrazino[1,2-a]pyrazin-1(6H)-one] | 43.6% | 26.4 nM | –
Cc1nnn(-c2ccc(C(F)F)cc2)c1COc1ccc(N2CCN(CC#N)C(=O)C2)nn1 [Example 99, 2-(4-(6-((1-(4-(Difluoromethyl)phenyl)-4-methyl-1H-1,2,3-triazol-5-yl)methoxy)pyridazin-3-yl)-2-oxopiperazin-1-yl)acetonitrile] | 48% | 1.95 nM | –
Cc1nnn(-c2ccc(OC(F)F)cc2)c1COc1ccc(N2CCN3CCNC(=O)[C@@H]3C2)nn1 [Example 130, (S)-8-(6-((1-(4-(Difluoromethoxy)phenyl)-4-methyl-1H-1,2,3-triazol-5-yl)methoxy)pyridazin-3-yl)octahydro-2H-pyrazino[1,2-a]pyrazin-1(6H)-one] | 57% | 17.1 nM | –
Cc1nnn(-c2ccc(C(F)F)cc2)c1COc1ccc(N2CCN(CCCC#N)C(=O)C2)nn1 [Example 143, 4-(4-(6-((1-(4-(Difluoromethyl)phenyl)-4-methyl-1H-1,2,3-triazol-5-yl)methoxy)pyridazin-3-yl)-2-oxopiperazin-1-yl)butanenitrile] | 52.5% | 1.89 nM | –
Cc1nnn(-c2ccc(C(F)F)cc2)c1COc1ccc(N2CCN3[C@@H]4CCC[C@@H]4NC(=O)[C@@H]3C2)nn1 [Example 197, (4aS,6aS,9aR)-3-(6-((1-(4-(Difluoromethyl)phenyl)-4-methyl-1H-1,2,3-triazol-5-yl)methoxy)pyridazin-3-yl)decahydrocyclopenta[e]pyrazino[1,2-a]pyrazin-5(1H)-one] | 52.4% | – | 4.95 nM

The next lines start with results.

inhibition at 0.1 µM [1] | Ki ([2]; read-out: α5-GABAAR Ki) | SMILES | Ki ([2]; α5-GABAAR Ki)
40.3% | 1.19 nM | Cc1nnn(-c2ccc(C(F)F)cc2)c1COc1ccc(N2CC3COCCN3C2=O)nn1 (stereo not shown) [Example 180, 2-(6-((1-(4-(Difluoromethyl)phenyl)-4-methyl-1H-1,2,3-triazol-5-yl)methoxy)pyridazin-3-yl)hexahydro-3H-imidazo[5,1-c][1,4]oxazin-3-one] | –
44.3% | 4.13 nM | Cc1nnn(-c2ccc(C(F)F)cc2)c1COc1ccc(N2CC(C(=O)N3CC(C)OC(C)C3)C2)nn1 (stereo not shown) [Example 156, (1-(6-((1-(4-(Difluoromethyl)phenyl)-4-methyl-1H-1,2,3-triazol-5-yl)methoxy)pyridazin-3-yl)azetidin-3-yl)(2,6-dimethylmorpholino)methanone] | –
47.7% | 2.58 nM | Cc1nnn(-c2ccc(CF)cc2)c1COc1ccc(N2CCN3CCNC(=O)[C@@H]3C2)nn1 [Example 162, (S)-8-(6-((1-(4-(Fluoromethyl)phenyl)-4-methyl-1H-1,2,3-triazol-5-yl)methoxy)pyridazin-3-yl)hexahydro-2H-pyrazino[1,2-a]pyrazin-1(6H)-one] | –
50.8% | 1.99 nM | Cc1nnn(-c2ccc(C(F)F)cc2)c1COc1ccc(N2CCN3CC(C4CC4)NC(=O)[C@@H]3C2)nn1 (single isomer, unassigned) [Example 203] | –
43.9% | 1.15 nM | Cc1nnn(-c2ccc(C(F)F)cc2)c1COc1ccc(N2CC(C(=O)Nc3ccn(C)n3)C2)nn1 [Example 101, 1-(6-((1-(4-(Difluoromethyl)phenyl)-4-methyl-1H-1,2,3-triazol-5-yl)methoxy)pyridazin-3-yl)-N-(1-methyl-1H-pyrazol-3-yl)azetidine-3-carboxamide] | –
47.2% | 1.33 nM | Cc1nnn(-c2ccc(C(F)F)cc2)c1COc1ccc(N2CCN(Cc3ccccn3)C(=O)C2)nn1 [Example 60, 4-(6-((1-(4-(Difluoromethyl)phenyl)-4-methyl-1H-1,2,3-triazol-5-yl)methoxy)pyridazin-3-yl)-1-(pyridin-2-ylmethyl)piperazin-2-one] | –
41.3% | 4.93 nM | Cc1nnn(-c2ccc(F)cn2)c1COc1ccc(N2CCNC(=O)C2)nn1 [Example 73, 4-(6-((1-(5-Fluoropyridin-2-yl)-4-methyl-1H-1,2,3-triazol-5-yl)methoxy)pyridazin-3-yl)piperazin-2-one] | –
51.5% | 2.13 nM | Cc1nnn(-c2ccc(C(F)F)cc2)c1COc1ccc(N2CCC2=O)nn1 [Example 18, 1-(6-((1-(4-(Difluoromethyl)phenyl)-4-methyl-1H-1,2,3-triazol-5-yl)methoxy)pyridazin-3-yl)azetidin-2-one] | –
42% | 1.07 nM | CC(=O)N1CCN(c2ccc(OCc3c(C)nnn3-c3ccc(C(F)F)cc3)nn2)CC1 [Example 171, 1-(4-(6-((1-(4-(Difluoromethyl)phenyl)-4-methyl-1H-1,2,3-triazol-5-yl)methoxy)pyridazin-3-yl)piperazin-1-yl)ethan-1-one] | –
47.6% | 1.34 nM | O=C1CN(c2ccc(OCc3c(Cl)nnn3-c3ccc(C(F)F)cc3)nn2)CCN1 [Example 131, 4-(6-((4-Chloro-1-(4-(difluoromethyl)phenyl)-1H-1,2,3-triazol-5-yl)methoxy)pyridazin-3-yl)piperazin-2-one] | –
49.1% | 0.58 nM | Cc1nnn(-c2ccc(C(F)F)cc2)c1COc1ccc(N2CCNC(=O)C2C)nn1 (stereo not shown) [Example 11, 4-(6-((1-(4-(Difluoromethyl)phenyl)-4-methyl-1H-1,2,3-triazol-5-yl)methoxy)pyridazin-3-yl)-3-methylpiperazin-2-one] | –

Source: patent publication US20250136581A1, “SUBSTITUTED TRIAZOLE DERIVATIVE, PREPARATION METHOD THEREFOR, PHARMACEUTICAL COMPOSITION THEREOF, AND USE THEREOF” (SHANGHAI SIMR BIOTECHNOLOGY CO., LTD., priority 2021, published 2025)
